Experimental data from patent US12091405B2, “Substituted pyrazole compounds as indoleamine 2,3-dioxygenase inhibitors” (Merck Sharp & Dohme LLC, priority 2018, dated 2024).

Biological target: IDO1 (Homo sapiens, UniProt P14902)
Experiment: IDO1 Cellular Assay in HeLa Cells Stimulated with IFNγ
Format: cell-based
Settings: IFNγ 100 ng/mL, 300 uM L-tryptophan, about 48 hours, fluorescence readout, read-out: IDO1 HELA Cell Assay, IC50

Sequence of IDO1 (P14902 whole entry): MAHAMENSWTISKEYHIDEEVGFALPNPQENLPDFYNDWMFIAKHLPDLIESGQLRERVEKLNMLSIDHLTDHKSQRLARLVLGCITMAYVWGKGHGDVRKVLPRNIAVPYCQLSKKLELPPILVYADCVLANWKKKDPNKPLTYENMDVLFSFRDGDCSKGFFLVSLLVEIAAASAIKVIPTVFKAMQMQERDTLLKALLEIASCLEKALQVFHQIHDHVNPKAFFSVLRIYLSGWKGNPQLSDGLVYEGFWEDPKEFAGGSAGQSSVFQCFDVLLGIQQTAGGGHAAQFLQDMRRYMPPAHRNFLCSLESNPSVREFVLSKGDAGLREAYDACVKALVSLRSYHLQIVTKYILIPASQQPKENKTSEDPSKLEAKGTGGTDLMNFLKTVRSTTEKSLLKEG

| SMILES | IC50 |
| --- | --- |
| Cc1c(C2CCN(C(=O)Cn3nc(C(=O)N4CCC(O)(CF)CC4)c4c3C[C@H]3C[C@@H]43)CC2)cccc1C(F)(F)F [Example 1, 2-((3bR,4aR)-3-(4-(fluoromethyl)-4-hydroxypiperidine-1-carbonyl)-3b,4,4a,5-tetrahydro-1H-cyclopropa[3,4]cyclopenta[1,2-c]pyrazol-1-yl)-1-(4-(2-methyl-3-(trifluoromethyl)phenyl)piperidin-1-yl)ethanone] | 0.8 nM |
| Cc1cccc(C2CCN(C(=O)Cn3nc(C(=O)N4CC[C@H](O)[C@H](F)C4)c4c3CCC4)CC2)c1C [Example 59, 1-(4-(2,3-dimethylphenyl)piperidin-1-yl)-2-(3-((3R,4S)-3-fluoro-4-hydroxypiperidine-1-carbonyl)-5,6-dihydrocyclopenta[c]pyrazol-1(4H)-yl)ethanone] | 1.8 nM |
| Cc1cc(C)c(C2CCN(C(=O)Cn3nc(C(=O)N4C[C@@H](C)O[C@@H](C)C4)c4c3CCC4)CC2)cc1C [Example 136, 2-{3-[(2R,6S)-2,6-dimethylmorpholine-4-carbonyl]-5,6-dihydrocyclopenta[c]pyrazol-1(4H)-yl}-1-[4-(2,4,5-trimethylphenyl)piperidin-1-yl]ethan-1-one] | 85 nM |
| C[C@@H]1CN(C(=O)c2nn(CC(=O)N3CCC(c4cccc5ccsc45)CC3)c3c2CCC3)C[C@H](C)O1 [Example 84, 1-[4-(benzothiophen-7-yl)-1-piperidyl]-2-[3-[(2S,6R)-2,6-dimethylmorpholine-4-carbonyl]-5,6-dihydro-4H-cyclopenta[c]pyrazol-2-ium-1-yl]ethanone;2,2,2-trifluoroacetate] | 4.7 nM |
| C[C@@H]1CN(C(=O)c2nn(CC(=O)N3CCC(c4cccc5c4OC(F)(F)O5)CC3)c3c2CCC3)C[C@H](C)O1 [Example 153, 1-[4-(2,2-difluoro-2H-1,3-benzodioxol-4-yl)piperidin-1-yl]-2-{3-[(2R,6S)-2,6-dimethylmorpholine-4-carbonyl]-5,6-dihydrocyclopenta[c]pyrazol-1(4H)-yl}ethan-1-one] | 138 nM |
| CCc1ccccc1C1CCN(C(=O)Cn2nc(C(=O)N3C[C@@H](C)O[C@@H](C)C3)c3c2CCC3)CC1 [Example 109, 2-{3-[(2R,6S)-2,6-dimethylmorpholine-4-carbonyl]-5,6-dihydrocyclopenta[c]pyrazol-1(4H)-yl}-1-[4-(2-ethylphenyl)piperidin-1-yl]ethan-1-one] | 38.2 nM |
| Cc1ccc(C2CCN(C(=O)Cn3nc(C(=O)N4C[C@@H](C)O[C@@H](C)C4)c4c3CCC4)CC2)cc1 [Example 127, 2-{3-[(2R,6S)-2,6-dimethylmorpholine-4-carbonyl]-5,6-dihydrocyclopenta[c]pyrazol-1(4H)-yl}-1-[4-(4-methylphenyl)piperidin-1-yl]ethan-1-one] | 61.1 nM |
| Cc1cccc(C2CCN(C(=O)Cn3nc(C(=O)N4CCC(O)CC4)c4c3CCC4)CC2(F)F)c1C (single isomer, unassigned) [Example 15, 1-(4-(2,3-dimethylphenyl)-3,3-difluoropiperidin-1-yl)-2-(3-(4-hydroxypiperidine-1-carbonyl)-5,6-dihydrocyclopenta[c]pyrazol-1(4H)-yl)ethanone] | 11.6 nM |
| C[C@@H]1CN(C(=O)c2nn(CC(=O)N3CCC(c4cccc5ccccc45)CC3)c3c2CCC3)C[C@H](C)O1 [Example 69, 2-{3-[(2R,6S)-2,6-dimethylmorpholine-4-carbonyl]-5,6-dihydrocyclopenta[c]pyrazol-1(4H)-yl}-1-[4-(naphthalen-1-yl)piperidin-1-yl]ethan-1-one] | 6.4 nM |
| Cc1cccc(C2CCN(C(=O)Cn3nc(C(=O)N4CCC(OCCO)CC4)c4c3CCCC4)CC2)c1C [Example 38, 1-(4-(2,3-dimethylphenyl)piperidin-1-yl)-2-(3-(4-(2-hydroxyethoxy)piperidine-1-carbonyl)-4,5,6,7-tetrahydro-1H-indazol-1-yl)ethanone] | 1.9 nM |
| Cc1cccc(C2CCN(C(=O)Cn3nc(C(=O)N4CC[C@@H](O)[C@@H](F)C4)c4c3C[C@@H]3C[C@H]43)CC2)c1C [Example 27, 1-[4-(2,3-dimethylphenyl)piperidin-1-yl]-2-{(3bS,4aS)-3-[(3S,4R)-3-fluoro-4-hydroxypiperidine-1-carbonyl]-3b,4,4a,5-tetrahydro-1H-cyclopropa[3,4]cyclopenta[1,2-c]pyrazol-1-yl}ethan-1-one] | 36.8 nM |
| C[C@@H]1CN(C(=O)c2nn(CC(=O)N3CCC(c4ccc5c(c4)CCO5)CC3)c3c2CCC3)C[C@H](C)O1 [Example 93, 1-[4-(2,3-dihydro-1-benzofuran-5-yl)piperidin-1-yl]-2-{3-[(2R,6S)-2,6-dimethylmorpholine-4-carbonyl]-5,6-dihydrocyclopenta[c]pyrazol-1(4H)-yl}ethan-1-one] | 17.8 nM |
| [2H]c1c([2H])c([2H])c(C2CCN(C(=O)Cn3nc(C(=O)N4C[C@@H](C)O[C@@H](C)C4)c4c3CCC4)CC2)c([2H])c1[2H] [Example 143, 2-{3-[(2R,6S)-2,6-dimethylmorpholine-4-carbonyl]-5,6-dihydrocyclopenta[c]pyrazol-1(4H)-yl}-1-[4-(~2~H_5_)phenylpiperidin-1-yl]ethan-1-one] | 102 nM |
| Cc1cccc(C2CCN(C(=O)Cn3nc(C(=O)N4CC[C@](C)(O)C4)c4c3CCC4)CC2)c1C [Example 49, (S)-1-(4-(2,3-dimethylphenyl)piperidin-1-yl)-2-(3-(3-hydroxy-3-methylpyrrolidine-1-carbonyl)-5,6-dihydrocyclopenta[c]pyrazol-1(4H)-yl)ethan-1-one] | 29.8 nM |
| CCc1ccc(C2CCN(C(=O)Cn3nc(C(=O)N4C[C@@H](C)O[C@@H](C)C4)c4c3CCC4)CC2)cc1 [Example 146, 2-{3-[(2R,6S)-2,6-dimethylmorpholine-4-carbonyl]-5,6-dihydrocyclopenta[c]pyrazol-1(4H)-yl}-1-[4-(4-ethylphenyl)piperidin-1-yl]ethan-1-one] | 107 nM |

The next lines start with the values.

| IC50 | SMILES |
| --- | --- |
| 27.7 nM | C[C@@H]1CN(C(=O)c2nn(CC(=O)N3CCC(c4ccc(F)c(Cl)c4)CC3)c3c2CCC3)C[C@H](C)O1 [Example 100, 1-[4-(3-chloro-4-fluorophenyl)piperidin-1-yl]-2-{3-[(2R,6S)-2,6-dimethylmorpholine-4-carbonyl]-5,6-dihydrocyclopenta[c]pyrazol-1(4H)-yl}ethan-1-one] |
| 89 nM | C[C@@H]1CN(C(=O)c2nn(CC(=O)N3CCC(c4ccc(C(F)F)c(F)c4)CC3)c3c2CCC3)C[C@H](C)O1 [Example 140, 1-{4-[4-(difluoromethyl)-3-fluorophenyl]piperidin-1-yl}-2-{3-[(2R,6S)-2,6-dimethylmorpholine-4-carbonyl]-5,6-dihydrocyclopenta[c]pyrazol-1(4H)-yl}ethan-1-one] |
| 27.1 nM | Cc1ccc(F)cc1C1CCN(C(=O)Cn2nc(C(=O)N3C[C@@H](C)O[C@@H](C)C3)c3c2CCC3)CC1 [Example 98, 2-{3-[(2R,6S)-2,6-dimethylmorpholine-4-carbonyl]-5,6-dihydrocyclopenta[c]pyrazol-1(4H)-yl}-1-[4-(5-fluoro-2-methylphenyl)piperidin-1-yl]ethan-1-one] |
| 8.8 nM | Cc1ccc(C2CCN(C(=O)Cn3nc(C(=O)N4C[C@@H](C)O[C@@H](C)C4)c4c3CCC4)CC2)cc1C [Example 89, 2-{3-[(2R,6S)-2,6-dimethylmorpholine-4-carbonyl]-5,6-dihydrocyclopenta[c]pyrazol-1(4H)-yl}-1-[4-(3,4-dimethylphenyl)piperidin-1-yl]ethan-1-one] |
| 40.3 nM | Cc1ccc(C2CCN(C(=O)Cn3nc(C(=O)N4C[C@@H](C)O[C@@H](C)C4)c4c3CCC4)CC2)cc1Cl [Example 111, 1-[4-(3-chloro-4-methylphenyl)piperidin-1-yl]-2-{3-[(2R,6S)-2,6-dimethylmorpholine-4-carbonyl]-5,6-dihydrocyclopenta[c]pyrazol-1(4H)-yl}ethan-1-one] |
| 30.3 nM | Cc1cc(Cl)ccc1C1CCN(C(=O)Cn2nc(C(=O)N3C[C@@H](C)O[C@@H](C)C3)c3c2CCC3)CC1 [Example 106, 1-[4-(4-chloro-2-methylphenyl)piperidin-1-yl]-2-{3-[(2R,6S)-2,6-dimethylmorpholine-4-carbonyl]-5,6-dihydrocyclopenta[c]pyrazol-1(4H)-yl}ethan-1-one] |
| 143 nM | Cc1cc(C)cc(C2CCN(C(=O)Cn3nc(C(=O)N4C[C@@H](C)O[C@@H](C)C4)c4c3CCC4)CC2)c1 [Example 155, 2-{3-[(2R,6S)-2,6-dimethylmorpholine-4-carbonyl]-5,6-dihydrocyclopenta[c]pyrazol-1(4H)-yl}-1-[4-(3,5-dimethylphenyl)piperidin-1-yl]ethan-1-one] |
| 54.5 nM | Cc1c(Cl)cc(Cl)cc1C1CCN(C(=O)Cn2nc(C(=O)N3C[C@@H](C)O[C@@H](C)C3)c3c2CCC3)CC1 [Example 122, 1-[4-(3,5-dichloro-2-methylphenyl)piperidin-1-yl]-2-{3-[(2R,6S)-2,6-dimethylmorpholine-4-carbonyl]-5,6-dihydrocyclopenta[c]pyrazol-1(4H)-yl}ethan-1-one] |
| 27.9 nM | C[C@@H]1CN(C(=O)c2nn(CC(=O)N3CCC(c4cc(F)c(Cl)c(F)c4)CC3)c3c2CCC3)C[C@H](C)O1 [Example 101, 1-[4-(4-chloro-3,5-difluorophenyl)piperidin-1-yl]-2-{3-[(2R,6S)-2,6-dimethylmorpholine-4-carbonyl]-5,6-dihydrocyclopenta[c]pyrazol-1(4H)-yl}ethan-1-one] |
| 31.5 nM | C[C@@H]1CN(C(=O)c2nn(CC(=O)N3CCC(c4cccc(Cl)c4)CC3)c3c2CCC3)C[C@H](C)O1 [Example 107, 1-[4-(3-chlorophenyl)piperidin-1-yl]-2-{3-[(2R,6S)-2,6-dimethylmorpholine-4-carbonyl]-5,6-dihydrocyclopenta[c]pyrazol-1(4H)-yl}ethan-1-one] |
| 40.6 nM | C[C@@H]1CN(C(=O)c2nn(CC(=O)N3CCC(c4ccc(Cl)c(F)c4)CC3)c3c2CCC3)C[C@H](C)O1 [Example 112, 1-[4-(4-chloro-3-fluorophenyl)piperidin-1-yl]-2-{3-[(2R,6S)-2,6-dimethylmorpholine-4-carbonyl]-5,6-dihydrocyclopenta[c]pyrazol-1(4H)-yl}ethan-1-one] |
